For data set [1], the system named is patients suffering from post-stroke depression (PSD). The experiment in a line: Clinical study of maraviroc in patients suffering from post-stroke depression (PSD). Type of data set: in vivo, human. As to the method: A clinical study to evaluate the safety, tolerability and efficacy of maraviroc in patients suffering from post-stroke depression (PSD) was performed as follows:
Ten men and women aged 50 to 86 years who experience stroke, i.e., cerebral infarction or transient ischemic attack (TIA) prior to the initiation of the study were enrolled to the study. These subjects also experienced a major depressive episode that develops within 12 months from the stroke/TIA. Clinical diagnosis of stroke was performed according to the World Health Organization Monica Project.
Exclusion criteria comprise e.g. 1) significant acute neurologic illness including: impaired consciousness, Parkinson's disease, Huntington's chorea, progressive supranuclear paralysis, brain tumor, subdural hematoma, multiple sclerosis, hydrocephalus, Binswanger's disease, or severe aphasia, 2) patients diagnosed with dementia or significant cognitive impairment as defined by a MoCA score <20 at screening, or other neurological conditions (multiple sclerosis, Parkinson's disease, epilepsy, Huntington's chorea, brain tumor, subdural hematoma, multiple sclerosis, hydrocephalus, or Binswanger's disease), 3) positive serology for Hepatitis B or C; or for HIV.
Each subject received 300 mg maraviroc daily or 150 mg daily for 10 weeks. Post-treatment follow-up was conducted for 8 weeks after the last dose of Maraviroc. During the 10 weeks of maraviroc treatment the subjects were evaluated every two weeks, and during the 8 weeks of follow-up the subjects were evaluated at the 4th and 8th week after the last dose of maraviroc.
The subjects were evaluated for the efficacy of maraviroc by assessing the improvement in depressive symptoms determined by a change from baseline (i.e., Day 1 pre-dose) in the Montgomery-Asberg Depression Rating Scale (MADRS) total score. Other assessments included, for example, assessment of depressive symptoms by the 16-item Quick Inventory of Depressive Symptomatology-Self Report (QIDS-SR16); assessment of remission, defined as a MADRS total score ≤10; assessment of response, defined as a ≥50% reduction from baseline in MADRS total score; evaluation of symptoms of anxiety as assessed by the Generalized Anxiety Disorder 7-item Scale (GAD-7)—each item is rated on a 4-point scale (0 to 3), with the total score range from 0-21 (higher scores indicating more anxiety); and evaluation of cognitive status, as assessed by cognitive score based on repeatable computerized battery of cognitive tests (Neurotrax) and Montreal Cognitive Assessment (MoCA).
Additional assessments include e.g. the clinical global impression-improvement (CGI-I), a 7 point scale that requires the clinician to assess how much the patient's illness has improved or worsened relative to a baseline state at the beginning of the intervention; the clinical global impression-severity (CGI-S), which evaluates the severity of psychopathology from 1 to 7, and provides an overall clinician-determined summary measure that takes into account all available information, including knowledge of the subject's history, psychosocial circumstances, symptoms, behavior, and the impact of the symptoms on the subject's ability to function; Patient Global Impression scales, commonly used measures of symptom severity, treatment response and the efficacy of treatments; the patient global impression-severity (PGI-S), that provides an overall patient-rated summary measure that assesses the severity of the subject's MDD; the patient global impression of change (PGI-C) which provides an overall patient-rated summary that assesses subject perception of change in their MDD since starting study treatment; the EuroQol Group; 5 dimension (EQ-5D) which is a standardized 2-part instrument for use as a measure of health outcome, primarily designed for self-completion by respondents. […]

Data set [2] deals with simian immunodeficiency virus (SIV)-mediated CNS disease. Particulars: rhesus macaques; cited from earlier work.
In a further data set the test system is hemiparkinsonian monkeys. Particulars: cited from earlier work.
In data set [3] the test system is subjects with CCR5-tropic HIV-1. Particulars: cited from earlier work.

The values below come from patent publication US12685724B2, “Antidepressant therapy” (ICHILOV TECH LTD., priority 2020, dated 2026).

In the case of `Cc1nnc(C(C)C)n1[C@@H]1C[C@H]2CC[C@@H](C1)N2CC[C@H](NC(=O)C1CCC(F)(F)CC1)c1ccccc1` [maraviroc], the “effect on anxiety symptoms” value in data set [1] (PSD patients, maraviroc 300 mg daily, GAD-7) is on record as “effective in reducing anxiety symptoms”. The “side effects reported by the participants during the study” value in data set [1] (PSD patients, maraviroc 300 mg once daily oral) was 1 transient impotence, 1 severe constipation (drug-unrelated). For the same compound, in data set [1] (PSD patients, maraviroc 300 mg once daily oral, 10 weeks, initial MADRS about 35-40), the “MADRS score following 10 weeks of treatment” value was 5-10. For the same compound, in data set [1] (PSD patients, maraviroc 300 mg once daily oral, initial MADRS >34), the “MADRS score, best outcome (normal/symptom-absent, remission)” value is less than 7. In addition, the “GAD-7 at data collection” value was determined as 10 in data set [1] (Patient 1, 10 weeks maraviroc 300 mg daily, add-on therapy, GAD-7 at admission 17 (severe)); 6 in data set [1] (Patient 2, 10 weeks maraviroc 300 mg daily, add-on therapy, GAD-7 at admission 6 (mild)); 7 in data set [1] (Patient 3, week 7 of maraviroc 300 mg daily, add-on therapy, GAD-7 at admission 8 (mild)); 8 in data set [1] (Patient 4, week 4 of maraviroc 300 mg daily, monotherapy, GAD-7 at admission 14 (moderate)). The “CGI severity (CGI-S) after four weeks of treatment” value in data set [1] (Patient 4, maraviroc monotherapy 300 mg daily, CGI=5 (markedly ill) at admission) amounted to 3. In data set [1] (all 4 PSD patients, maraviroc 300 mg once daily oral, 4-10 weeks), the “depressive symptoms on quick inventory of depressive symptoms-self report (QIDS-SR)” value is reported as “All patients improved their depressive symptoms”. Moreover, the “MADRS score after treatment” value in data set [1] (all 4 PSD patients, maraviroc 300 mg once daily oral, 4-10 weeks, initial MADRS about 35-40 (>34, severe)) is on record as less than 20. Further, the “time from first dose to beginning of treatment effects (time to response), depressive scores evaluated by senior psychiatrist” value in data set [1] (all 4 PSD patients, maraviroc 300 mg once daily oral, add-on (patients 1-3) or monotherapy (patient 4)) is on record as 1-2 weeks. Besides, in data set [1] (all 4 PSD patients, self-report depressive scores, maraviroc 300 mg once daily oral), the “time from first dose to beginning of self-reported treatment effect” value is on record as 1-2 weeks. Besides, in data set [1] (human PSD patients), the safety and tolerability result is listed as “well-tolerated without safety concerns”. Also, in data set [2], the “SIV-mediated CNS disease (SIV RNA in CSF and brain, CD68 immunostaining, axonal APP immunostaining)” value is given as “inhibited simian immunodeficiency virus (SIV)-mediated CNS disease”. For the same compound, the “effect on the nigrostriatum” value in the data set with hemiparkinsonian monkeys is recorded as “protects the nigrostriatum”. In addition, the “infiltration of T cells into the central nervous system” value in the data set on hemiparkinsonian monkeys was “attenuates the infiltration of T cells into the central nervous system”. For the same compound, in data set [3] (pooled data from two trials in subjects with CCR5-tropic HIV-1), the “potential treatment-emergent adverse events” value was “Depressive disorders and anxiety symptoms”. In data set [3] (treatment-experienced subjects), the “most common adverse events, at higher frequency compared with placebo” value was “upper respiratory tract infections, cough, pyrexia, rash, and dizziness”.
